Assay results from US20040143025A1, “Carbon monoxide generating compunds for treatment of vascular, inflammatory and immune disorders” (priority 2002, published 2004).

What was measured:
[1] = system: iNOS; assay: Western blot of liver samples, iNOS; parameters: species or system rat; conditions: 2 h reperfusion
Procedure: Western blots. Protein was extracted from liver samples with PBSTDS buffer (50 mM Tris, 150 mM NaCl, 0.1% SDS, 1% sodium deoxycholate, and 1% triton X-100, pH 7.2). Proteins (30 μg/sample) in SDS-loading buffer (50 mM Tris, pH 7.6, 10% glycerol, 1% SDS) were subjected to 12% SDS-polyacrylamide gel electrophoresis and transferred to nitrocellulose membrane (Bio-Rad, Hercules, Calif.). The gel was stained with coomassie blue to document equal protein loading. The membrane was blocked with 3% dry milk and 0.1% Tween 20 (USB, Cleveland, Ohio) in PBS and incubated with rabbit anti-rat HO-1 or iNOS polyclonal Abs (SangStat, Fremont, Calif.). Relative protein quantities were determined using a densitometer (Kodak Digital Science 1D Analysis Software, Rochester, N.Y.).

[2] = system: TNF-α; assay: LPS-induced serum TNF-α in mice (sandwich ELISA); format: in vivo, C57/BL6 mice
Procedure: To examine the effect of gaseous CO on the immune system, C57/BL6 mice (B6, Jackson Laboratory, Bar Harbor, Me.) were first exposed to 500 ppm CO in air (Praxair, Danbury, Conn.) for one hour in a sealed chamber before injection of lipopolysaccharide (LPS) (0.3 mg/kg, i.v., Sigma, St Louis, Mo.). After injection, they were exposed to another hour in the CO chamber. Blood samples were collected one hour after LPS injection (through the aortic artery) and the COHb level in whole blood was measured by a whole blood AVOXimeter 4000 (A-VOX Systems, San Antonio, Tex.). Serum samples were separated and were kept at −80° C. until analysis. Serum TNF-α was measured by sandwich ELISA (Biosource, Camarillo, Calif.).
To reveal the therapeutic potential of CO generators, methylene chloride (MC, Sigma, St. Louis, Mo.) was selected as a lead compound. Different concentrations of MC were prepared by using olive oil as a solvent. Mice were treated with MC at 5 mg/kg., 50 mg/kg, and 500 mg/kg, p.o., one hour before LPS administration.

[3] = system: Lewis rats; assay: Experimental autoimmune encephalomyelitis (EAE) model of multiple sclerosis; format: in vivo, rat; conditions: daily oral administration from day 8 post-inoculation; scale 0 to 3
Procedure: Multiple sclerosis is characterized by an autoimmune and inflammatory response directed against myelin sheath and oligodendrocytes, resulting in demyelination in the central nervous system. A well-established animal model of multiple sclerosis, experimental autoimmune encephalomyelitis (EAE), was used to examine the effect of the subject alkyl halides on this autoimmune and inflammatory condition of the central nervous system. Lewis rats were given intradermal footpad injections of 50 μg guinea pig myelin basic protein (MBP) and complete Freund's adjuvant (CFA) to induce experimental allergic encephalomyelitis (EAE). Daily oral administration of vehicle, methylene chloride or iodoform was started on day 8 post-inoculation and continued to the end of the study. Animals were monitored and scored on a 0 (normal) to 3 (complete hindlimb paralysis) scale. Daily mean±SD clinical scores are shown.

[4] = system: LEW.1W aortic allografts in LEW.1A rats; assay: Chronic aorta allograft rejection model, morphometry of intima thickness; format: in vivo, rat; conditions: day 30
Procedure: Animals and aorta transplantation. Transplantations were performed using 250 g inbred male Lewis 1W rats (LEW. 1W, haplotype RT1^u) as donors and LEW.1A rats (haplotype RT1^a) as recipients (CERJ, Le Genest St. Isle, France). These animals are completely mismatched for the entire MHC region. Animal procedures followed European guidelines for animal experimentation. The descending thoracic aortas were harvested, perfused with saline and anastomosed to the recipient's abdominal aorta below the renal arteries and above the aortic bifurcation. Anastomosis was performed in a termino-lateral fashion and the recipient abdominal aorta was ligated between the two-graft anastomosis. […]
MC (Sigma, St. Louis, Mo.) was diluted in olive oil and administered orally on a daily basis (from day 0 to 30) at 500 mg/kg. […] COHb levels were evaluated in heparinized venous blood using the VOXimeter sensor (A-VOX Systems, San Antonio, Tex.) and expressed as the percentage of total hemoglobin. Bicarbonates, soluble CO2, total CO2 and pH were measured using standard clinical biochemistry techniques (Laboratory of Biochemistry, University Hospital of Nantes).
Recombinant adenovirus and gene transfer into the aorta. […] Quantification of infectious adenoviral particles was determined by counting the number of spots (corresponding to individual viral replication events) on infected 293 cells. […]

Row | SMILES | iNOS expression (Western blot) [1] | serum TNF-α levels ([2]; LPS 0.3 mg/kg i.v., 500 ppm CO in air 1 h before and 1 h after LPS, blood 1 h after LPS) | clinical score / clinical signs [3] | intimal thickening (mean±SEM) ([4]; allogeneic aortic grafts, MC 500 mg/kg orally daily, adenoviruses 10^10 IP into donor aorta) | infiltrating cells in adventitia (HES) [4] | level of TNF-α ([2]; MC 5 mg/kg p.o. one hour before LPS) | level of TNF-α ([2]; MC 50 mg/kg p.o. one hour before LPS) | level of TNF-α ([2]; MC 500 mg/kg p.o. one hour before LPS)
1 | [C-]#[O+] [CO, carbon monoxide] | no detectable bands | 3,347+1393 pg/ml | – | – | – | – | – | –
2 | ClCCl [methylene chloride] | – | – | show improvement over the controls | 8.3±4.5% | moderate reduction | 3720 ± 1666 pg/mL | 3124.2 ± 1147 pg/mL | 2339 ± 770 pg/mL
